Experimental data taken from ChEMBL document CHEMBL4507300 (2021).

Columns and labels:
[1] = target: T1, 5-hydroxytryptamine receptor 2B (Homo sapiens, UniProt P41595); assay: GPCRScan assay: inhibition of 5-HT2B; parameters: radioligand conc. used [nm] 1.0 – 2.0, parental cells stable HEK
[2] = target: T2, Sodium-dependent serotonin transporter (Homo sapiens, UniProt P31645); assay: GPCRScan assay: inhibition of SERT; parameters: radioligand conc. used [nm] 1.5 – 2.0, parental cells stable HEK
Target sequence in this assay (P31645 whole entry): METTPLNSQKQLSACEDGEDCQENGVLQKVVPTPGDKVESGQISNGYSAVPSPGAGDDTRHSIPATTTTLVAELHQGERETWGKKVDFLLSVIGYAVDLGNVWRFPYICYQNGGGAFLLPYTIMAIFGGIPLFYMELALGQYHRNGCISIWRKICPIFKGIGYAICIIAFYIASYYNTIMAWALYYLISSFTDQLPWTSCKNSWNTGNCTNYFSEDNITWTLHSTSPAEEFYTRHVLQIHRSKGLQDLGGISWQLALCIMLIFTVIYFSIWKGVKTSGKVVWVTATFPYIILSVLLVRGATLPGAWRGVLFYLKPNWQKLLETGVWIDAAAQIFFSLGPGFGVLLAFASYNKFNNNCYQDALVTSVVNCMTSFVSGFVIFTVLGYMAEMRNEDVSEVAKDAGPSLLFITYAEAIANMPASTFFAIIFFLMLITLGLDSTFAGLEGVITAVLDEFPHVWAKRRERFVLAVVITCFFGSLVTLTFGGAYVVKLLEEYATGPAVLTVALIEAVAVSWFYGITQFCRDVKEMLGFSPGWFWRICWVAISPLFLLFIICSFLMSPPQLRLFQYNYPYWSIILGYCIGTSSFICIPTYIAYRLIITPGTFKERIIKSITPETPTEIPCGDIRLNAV

Histamine H1 receptor [3] = target: T3, Histamine H1 receptor (Homo sapiens, UniProt P35367); assay: GPCRScan assay: inhibition of H1; parameters: radioligand conc. used [nm] 0.6 – 2.0, parental cells stable HEK
[4] = target: T4, Sigma non-opioid intracellular receptor 1 (Homo sapiens, UniProt Q99720); assay: GPCRScan assay: inhibition of Sigma 1; parameters: radioligand conc. used [nm] 4.0 – 5.0, parental cells HEKT
[5] = target: 5-hydroxytryptamine receptor 1A (Homo sapiens) (UniProt P08908); details: Compound concentration 10.0 uM
[6] = target: 5-hydroxytryptamine receptor 1B (Homo sapiens) (UniProt P28222); details: Compound concentration 10.0 uM
[7] = target: 5-hydroxytryptamine receptor 1D (Homo sapiens) (UniProt P28221); details: Compound concentration 10.0 uM
[8] = target: 5-hydroxytryptamine receptor 1E (Homo sapiens) (UniProt P28566); details: Compound concentration 10.0 uM
[9] = target: 5-hydroxytryptamine receptor 2A (Homo sapiens) (UniProt P28223); details: Compound concentration 10.0 uM
[10] = target: T1, 5-hydroxytryptamine receptor 2B; details: Compound concentration 10.0 uM
[11] = target: 5-hydroxytryptamine receptor 2C (Homo sapiens) (UniProt P28335); details: Compound concentration 10.0 uM
[12] = target: 5-hydroxytryptamine receptor 3A (Homo sapiens) (UniProt P46098); details: Compound concentration 10.0 uM
[13] = target: 5-hydroxytryptamine receptor 5A (Homo sapiens) (UniProt P47898); details: Compound concentration 10.0 uM
[14] = target: 5-hydroxytryptamine receptor 6 (Homo sapiens) (UniProt P50406); details: Compound concentration 10.0 uM
[15] = target: 5-hydroxytryptamine receptor 7 (Homo sapiens) (UniProt P34969); details: Compound concentration 10.0 uM
[16] = target: D(2) dopamine receptor (Homo sapiens) (UniProt P14416); details: Compound concentration 10.0 uM
[17] = target: D(3) dopamine receptor (Homo sapiens) (UniProt P35462); details: Compound concentration 10.0 uM
[18] = target: D(4) dopamine receptor (Homo sapiens) (UniProt P21917); details: Compound concentration 10.0 uM
[19] = target: D(1B) dopamine receptor (Homo sapiens) (UniProt P21918); details: Compound concentration 10.0 uM
[20] = target: T2, Sodium-dependent serotonin transporter; details: Compound concentration 10.0 uM
Target sequence in this assay (P31645 whole entry, looked up): as the sequence (P31645 whole entry) above

[21] = target: Sodium-dependent noradrenaline transporter (Homo sapiens) (UniProt P23975); details: Compound concentration 10.0 uM
[22] = target: Sodium-dependent dopamine transporter (Homo sapiens) (UniProt Q01959); details: Compound concentration 10.0 uM
[23] = target: Mu-type opioid receptor (Homo sapiens) (UniProt P35372); details: Compound concentration 10.0 uM
[24] = target: Delta-type opioid receptor (Homo sapiens) (UniProt P41143); details: Compound concentration 10.0 uM
[25] = target: Kappa-type opioid receptor (Homo sapiens) (UniProt P41145); details: Compound concentration 10.0 uM
[26] = target: T5, GABA-A receptor; anion channel (Rattus norvegicus) (UniProt O09028+P15431+P18506+P18508+P19969+P20236+P23574+P23576+P28471+P28473+P30191+P62813+P63079+P63138+Q91ZM7+Q9ES14); details: Compound concentration 10.0 uM
Histamine H1 receptor [27] = target: T3, Histamine H1 receptor; details: Compound concentration 10.0 uM
[28] = target: Histamine H2 receptor (Homo sapiens) (UniProt P25021); details: Compound concentration 10.0 uM
[29] = target: Histamine H3 receptor (Homo sapiens) (UniProt Q9Y5N1); details: Compound concentration 10.0 uM
[30] = target: Histamine H4 receptor (Homo sapiens) (UniProt Q9H3N8); details: Compound concentration 10.0 uM
[31] = target: Alpha-1A adrenergic receptor (Homo sapiens) (UniProt P35348); details: Compound concentration 10.0 uM
[32] = target: Alpha-1B adrenergic receptor (Homo sapiens) (UniProt P35368); details: Compound concentration 10.0 uM
[33] = target: Alpha-2A adrenergic receptor (Homo sapiens) (UniProt P08913); details: Compound concentration 10.0 uM
[34] = target: Alpha-2B adrenergic receptor (Homo sapiens) (UniProt P18089); details: Compound concentration 10.0 uM
[35] = target: Alpha-2C adrenergic receptor (Homo sapiens) (UniProt P18825); details: Compound concentration 10.0 uM
[36] = target: Beta-1 adrenergic receptor (Homo sapiens) (UniProt P08588); details: Compound concentration 10.0 uM
[37] = target: Beta-2 adrenergic receptor (Homo sapiens) (UniProt P07550); details: Compound concentration 10.0 uM
[38] = target: Muscarinic acetylcholine receptor M1 (Homo sapiens) (UniProt P11229); details: Compound concentration 10.0 uM
[39] = target: Muscarinic acetylcholine receptor M2 (Homo sapiens) (UniProt P08172); details: Compound concentration 10.0 uM
[40] = target: Muscarinic acetylcholine receptor M5 (Homo sapiens) (UniProt P08912); details: Compound concentration 10.0 uM
[41] = target: Beta-3 adrenergic receptor (Homo sapiens) (UniProt P13945); details: Compound concentration 10.0 uM
[42] = target: T5, GABA-A receptor; anion channel (Rattus norvegicus); details: Compound concentration 10.0 uM; remark: listed apart in the source
Rattus norvegicus = species on record: Rattus norvegicus; details: Compound concentration 10.0 uM
[43] = target: Alpha-1D adrenergic receptor (Homo sapiens) (UniProt P25100); details: Compound concentration 10.0 uM
[44] = target: T4, Sigma non-opioid intracellular receptor 1; details: Compound concentration 10.0 uM

T4 sequence (Q99720 whole entry): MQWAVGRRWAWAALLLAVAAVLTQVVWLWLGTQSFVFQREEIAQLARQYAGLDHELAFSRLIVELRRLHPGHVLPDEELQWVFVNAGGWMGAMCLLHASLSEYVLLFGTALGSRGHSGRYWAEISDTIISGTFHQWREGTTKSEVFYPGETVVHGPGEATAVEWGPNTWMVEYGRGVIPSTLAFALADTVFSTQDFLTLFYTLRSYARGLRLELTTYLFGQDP
T3 sequence (P35367 whole entry): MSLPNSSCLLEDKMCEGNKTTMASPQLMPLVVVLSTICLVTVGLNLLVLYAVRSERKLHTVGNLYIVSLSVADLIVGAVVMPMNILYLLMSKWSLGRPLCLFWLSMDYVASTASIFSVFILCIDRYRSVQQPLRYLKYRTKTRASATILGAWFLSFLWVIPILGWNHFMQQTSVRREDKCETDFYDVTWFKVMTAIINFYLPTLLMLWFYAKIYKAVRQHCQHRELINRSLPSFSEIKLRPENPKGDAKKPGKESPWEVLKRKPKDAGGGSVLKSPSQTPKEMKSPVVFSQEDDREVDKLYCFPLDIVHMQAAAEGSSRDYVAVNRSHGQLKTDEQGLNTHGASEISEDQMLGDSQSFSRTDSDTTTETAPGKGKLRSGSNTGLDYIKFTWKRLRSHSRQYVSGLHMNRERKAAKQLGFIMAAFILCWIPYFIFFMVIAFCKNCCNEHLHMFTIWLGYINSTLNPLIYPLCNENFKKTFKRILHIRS
T1 sequence (P41595 whole entry): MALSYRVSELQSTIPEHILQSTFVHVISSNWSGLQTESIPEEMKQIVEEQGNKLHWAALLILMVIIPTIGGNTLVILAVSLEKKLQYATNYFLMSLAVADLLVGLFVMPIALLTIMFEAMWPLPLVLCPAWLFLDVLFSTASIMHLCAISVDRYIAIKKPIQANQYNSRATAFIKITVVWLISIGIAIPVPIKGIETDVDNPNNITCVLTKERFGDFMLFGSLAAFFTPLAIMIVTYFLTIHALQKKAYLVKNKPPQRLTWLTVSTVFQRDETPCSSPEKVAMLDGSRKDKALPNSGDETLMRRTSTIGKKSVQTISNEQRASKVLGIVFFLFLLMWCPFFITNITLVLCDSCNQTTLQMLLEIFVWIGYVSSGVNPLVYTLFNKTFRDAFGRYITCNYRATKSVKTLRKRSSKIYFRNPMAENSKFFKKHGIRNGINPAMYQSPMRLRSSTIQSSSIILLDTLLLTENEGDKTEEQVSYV
Histamine H4 receptor (Homo sapiens), sequence (Q9H3N8 whole entry): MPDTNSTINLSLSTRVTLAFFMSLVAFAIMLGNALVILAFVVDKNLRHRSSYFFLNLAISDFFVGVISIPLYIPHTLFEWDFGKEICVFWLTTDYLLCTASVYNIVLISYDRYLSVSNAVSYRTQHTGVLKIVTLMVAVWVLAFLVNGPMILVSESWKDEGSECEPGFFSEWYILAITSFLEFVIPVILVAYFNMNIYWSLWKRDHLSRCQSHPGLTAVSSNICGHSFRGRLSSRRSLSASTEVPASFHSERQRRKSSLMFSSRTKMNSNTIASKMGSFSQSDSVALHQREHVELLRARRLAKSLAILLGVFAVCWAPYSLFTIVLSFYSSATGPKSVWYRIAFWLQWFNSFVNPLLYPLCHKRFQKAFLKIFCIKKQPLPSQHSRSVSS
Sodium-dependent noradrenaline transporter (Homo sapiens), sequence (P23975 whole entry): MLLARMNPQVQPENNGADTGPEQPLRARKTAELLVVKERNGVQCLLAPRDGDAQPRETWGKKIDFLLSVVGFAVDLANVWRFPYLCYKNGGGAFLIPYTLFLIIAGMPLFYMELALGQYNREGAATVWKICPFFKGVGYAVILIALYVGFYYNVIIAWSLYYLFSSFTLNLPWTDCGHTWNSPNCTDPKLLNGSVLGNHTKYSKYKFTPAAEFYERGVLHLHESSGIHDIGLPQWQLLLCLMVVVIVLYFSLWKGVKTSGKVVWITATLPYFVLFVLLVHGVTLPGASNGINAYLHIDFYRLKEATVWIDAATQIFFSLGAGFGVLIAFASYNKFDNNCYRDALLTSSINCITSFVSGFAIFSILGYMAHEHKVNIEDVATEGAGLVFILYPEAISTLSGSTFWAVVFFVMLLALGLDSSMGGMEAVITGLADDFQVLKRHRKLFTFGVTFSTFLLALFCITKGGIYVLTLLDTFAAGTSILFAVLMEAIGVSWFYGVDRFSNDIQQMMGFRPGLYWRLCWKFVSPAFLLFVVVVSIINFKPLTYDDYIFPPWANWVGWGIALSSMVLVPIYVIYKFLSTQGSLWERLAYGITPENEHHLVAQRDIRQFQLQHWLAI
Delta-type opioid receptor (Homo sapiens), sequence (P41143 whole entry): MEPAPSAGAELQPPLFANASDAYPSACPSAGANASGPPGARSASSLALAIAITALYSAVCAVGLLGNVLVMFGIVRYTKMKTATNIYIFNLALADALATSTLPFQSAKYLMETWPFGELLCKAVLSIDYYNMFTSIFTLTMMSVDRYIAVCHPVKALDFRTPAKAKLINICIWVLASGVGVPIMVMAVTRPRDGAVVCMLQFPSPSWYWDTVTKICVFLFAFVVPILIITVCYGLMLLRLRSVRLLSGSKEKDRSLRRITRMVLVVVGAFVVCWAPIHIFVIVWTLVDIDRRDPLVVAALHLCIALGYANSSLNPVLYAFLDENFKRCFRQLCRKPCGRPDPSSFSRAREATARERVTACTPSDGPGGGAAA
Kappa-type opioid receptor (Homo sapiens), sequence (P41145 whole entry): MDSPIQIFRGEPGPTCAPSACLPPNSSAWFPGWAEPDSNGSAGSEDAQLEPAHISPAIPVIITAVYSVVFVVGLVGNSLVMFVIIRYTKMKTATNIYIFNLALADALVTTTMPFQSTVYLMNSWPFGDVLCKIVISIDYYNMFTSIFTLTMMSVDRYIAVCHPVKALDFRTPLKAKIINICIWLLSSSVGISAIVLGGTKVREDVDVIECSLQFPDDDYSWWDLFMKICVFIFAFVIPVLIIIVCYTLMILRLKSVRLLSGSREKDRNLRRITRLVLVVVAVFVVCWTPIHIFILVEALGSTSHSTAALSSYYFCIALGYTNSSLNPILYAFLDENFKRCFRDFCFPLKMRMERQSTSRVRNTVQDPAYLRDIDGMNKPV
Alpha-2A adrenergic receptor (Homo sapiens), sequence (P08913 whole entry): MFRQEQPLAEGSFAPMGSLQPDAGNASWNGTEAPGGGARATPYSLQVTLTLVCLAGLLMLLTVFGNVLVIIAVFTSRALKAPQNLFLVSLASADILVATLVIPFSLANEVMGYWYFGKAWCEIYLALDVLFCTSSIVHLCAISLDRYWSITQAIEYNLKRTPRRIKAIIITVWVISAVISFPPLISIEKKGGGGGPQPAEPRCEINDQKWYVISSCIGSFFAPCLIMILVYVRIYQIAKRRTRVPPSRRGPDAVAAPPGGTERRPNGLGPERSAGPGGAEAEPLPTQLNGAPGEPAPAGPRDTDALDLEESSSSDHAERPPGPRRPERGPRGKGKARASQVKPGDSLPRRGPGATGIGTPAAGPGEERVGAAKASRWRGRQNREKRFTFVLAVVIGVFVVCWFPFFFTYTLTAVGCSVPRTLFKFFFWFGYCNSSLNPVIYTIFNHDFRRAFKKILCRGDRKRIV

COc1cccc(CNC(=O)c2nc3scc(CN(C)Cc4ccccc4)c3c(=O)[nH]2)c1 [T-26f]
Ki [1]: 1.6 µM
Ki [2]: 0.831 µM
Ki (Histamine H1 receptor [3]): 0.019 µM
Ki [4]: 0.263 µM
inhibition [5]: 15.8%
inhibition [6]: -2.26%
inhibition [7]: -0.959%
inhibition [8]: -0.688%
inhibition [9]: 14.9%
inhibition [10]: 51%
inhibition [11]: 13.5%
inhibition [12]: 20.4%
inhibition [13]: 2.98%
inhibition [14]: 3.76%
inhibition [15]: -5.94%
inhibition [16]: 12.5%
inhibition [17]: 20.1%
inhibition [18]: 14.4%
inhibition [19]: 2.81%
inhibition [20]: 84%
inhibition [21]: 19.6%
inhibition [22]: -7.85%
inhibition [23]: 2.84%
inhibition [24]: -5.54%
inhibition [25]: 14.2%
inhibition [26]: 30.5%
inhibition (Histamine H1 receptor [27]): 73.4%
inhibition [28]: 30.7%
inhibition [29]: 6.01%
inhibition [30]: 21%
inhibition [31]: 12.5%
inhibition [32]: 12.9%
inhibition [33]: 27.3%
inhibition [34]: 17.4%
inhibition [35]: 16.3%
inhibition [36]: 30.9%
inhibition [37]: -6.8%
inhibition [38]: -8.97%
inhibition [39]: 26.6%
inhibition [40]: 2.67%
inhibition [41]: -4.01%
inhibition [42]: 32.4%
inhibition (Rattus norvegicus): 18.5%
inhibition [43]: 12.7%
inhibition [44]: 80.7%
